From US20220033407A1, “N-(pyridin-2-ylsulfonyl)cyclopropanecarboxamide Derivatives and their Use in the Treatment of Disease” (NOVARTIS AG, priority 2018, published 2022) come the findings set out here.

For assay [1], the target named is T1, delF508-CFTR-HRP (Homo sapiens, UniProt P13569, DEL508-508).
T1 construct: expressed in transfected cells
As to the kind of experiment: Measurement of delF508-CFTR-HRP surface expression in CFBE41o- cells (HRP luminescence).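 On DelF508-CFTR-HRP Amax %: percent efficacy relative to a reference CFTR corrector compound.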 As to conditions: for Emax: CFBE41o-, read-out: DelF508-CFTR-HRP Amax %; for EC50: mean of at least two replicates. The format is cell-based. Put shortly:
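EC50 derived by logistic regression of triplicate surface-HRP luminescence, plate-normalized to the lowest-concentration median. Doxycycline (500 ng/mL, 48 h) induced delF508-CFTR-HRP in CFBE41o- cells; compounds then applied 24 h at 37° C, 10 μM top, 3-fold over 10 points.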

The target in assay [2] is T2, delF508-CFTR (Homo sapiens, UniProt P13569, DEL508-508).
T2 construct: functional activity of the CFTR channel (Chloride ion transport) in patient derived primary human bronchial epithelial cells; host or cells: patient-derived primary human bronchial epithelial cells (HBECs), delF508-CFTR
T2 sequence (P13569 with tags, fused parts or gaps DEL508-508): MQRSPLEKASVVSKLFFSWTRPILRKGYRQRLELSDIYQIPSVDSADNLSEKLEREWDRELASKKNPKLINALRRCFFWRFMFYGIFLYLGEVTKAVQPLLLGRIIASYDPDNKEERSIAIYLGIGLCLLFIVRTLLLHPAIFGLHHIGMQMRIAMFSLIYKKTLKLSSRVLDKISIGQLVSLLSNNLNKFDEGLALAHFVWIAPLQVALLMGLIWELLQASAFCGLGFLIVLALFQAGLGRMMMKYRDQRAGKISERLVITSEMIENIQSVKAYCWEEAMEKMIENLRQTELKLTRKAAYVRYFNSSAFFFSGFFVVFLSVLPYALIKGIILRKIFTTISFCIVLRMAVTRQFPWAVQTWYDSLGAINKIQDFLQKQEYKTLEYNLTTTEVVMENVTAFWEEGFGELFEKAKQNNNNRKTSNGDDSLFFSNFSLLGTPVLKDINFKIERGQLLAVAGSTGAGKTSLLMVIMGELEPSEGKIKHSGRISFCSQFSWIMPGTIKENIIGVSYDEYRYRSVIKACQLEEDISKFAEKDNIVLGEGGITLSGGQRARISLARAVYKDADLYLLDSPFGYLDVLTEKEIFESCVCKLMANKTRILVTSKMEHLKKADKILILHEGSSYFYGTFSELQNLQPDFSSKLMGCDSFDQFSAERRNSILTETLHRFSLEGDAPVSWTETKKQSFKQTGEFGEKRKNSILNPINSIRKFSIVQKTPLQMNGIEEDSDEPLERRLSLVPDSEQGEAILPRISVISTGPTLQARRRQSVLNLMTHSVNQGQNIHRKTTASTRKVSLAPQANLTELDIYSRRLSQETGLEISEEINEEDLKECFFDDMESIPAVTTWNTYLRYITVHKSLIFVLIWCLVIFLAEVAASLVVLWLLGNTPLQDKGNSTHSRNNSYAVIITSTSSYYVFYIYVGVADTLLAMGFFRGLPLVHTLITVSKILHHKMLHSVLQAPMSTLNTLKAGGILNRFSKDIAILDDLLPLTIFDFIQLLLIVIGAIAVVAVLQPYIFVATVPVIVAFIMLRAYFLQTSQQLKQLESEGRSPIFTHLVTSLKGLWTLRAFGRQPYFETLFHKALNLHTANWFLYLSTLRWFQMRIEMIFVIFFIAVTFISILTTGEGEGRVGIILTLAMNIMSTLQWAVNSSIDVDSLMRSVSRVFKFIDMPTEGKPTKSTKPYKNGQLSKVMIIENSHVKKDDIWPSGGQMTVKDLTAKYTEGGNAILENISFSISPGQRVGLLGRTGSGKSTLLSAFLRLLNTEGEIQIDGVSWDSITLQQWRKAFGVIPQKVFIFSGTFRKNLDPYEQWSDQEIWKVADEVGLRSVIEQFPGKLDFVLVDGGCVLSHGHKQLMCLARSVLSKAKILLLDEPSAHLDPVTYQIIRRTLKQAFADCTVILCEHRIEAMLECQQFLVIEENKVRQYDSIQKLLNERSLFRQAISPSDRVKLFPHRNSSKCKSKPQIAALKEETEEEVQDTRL
The assay is described as follows: delF508-CFTR functional activity in primary human bronchial epithelial cells (HBECs), Multi-Transepithelial Clamp Circuit (MTECC-24) assay, equivalent short circuit current. The format is cell-based. As to conditions: primary CF HBECs; for MTECC24 CFHBEC-Amax %: relative to reference combination 2 μM 3-(6-(1-(2,2-difluorobenzo[d][1,3]dioxol-5-yl)cyclopropane-1-carboxamido)-3-methylpyridin-2-yl)benzoic acid (24 h) + 0.5 μM N-(2,4-di-tert-butyl-5-hydroxyphenyl)-4-oxo-1,4-dihydroquinoline-3-carboxamide; for EC50: test compound added 24 h before assay, potentiator (S)-3-amino-6-methoxy-N-(3,3,3-trifluoro-2-hydroxy-2-methylpropyl)-5-(trifluoromethyl)picolinamide present at assay, mean of at least two replicates, read-out: MTECC24 CFHBEC-EC50. In short, it runs like this:
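Compound acted as corrector on differentiated primary delF508-CFTR bronchial cultures, first 24 h basolaterally, then 45 min both sides before reading. Equivalent short circuit current was recorded during sequential forskolin and potentiator addition. EC50 came from 10-point, 1-in-3 dilution curves against the 0.1% DMSO baseline.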

T1 sequence (P13569 with tags, fused parts or gaps DEL508-508): as above

A word on the EC50: it is the concentration needed to bring the measured effect to its halfway point. For the molecule `Cc1ccc(C2CCCOC2)c(OC2(C(=O)NS(=O)(=O)c3cccc(N4CCC[C@@H](CO)C4)n3)CC2)c1` (stereo partly drawn) [Example 4-20, N-((6-((R)-3-(hydroxymethyl)piperidin-1-yl)pyridin-2-yl)sulfonyl)-1-(5-methyl-2-(tetrahydro-2H-pyran-3-yl)phenoxy)cyclopropane-1-carboxamide], in assay [1], the Emax amounted to 202% and the EC50 was 3230 nM. For the same molecule, in assay [2], the “MTECC24 CFHBEC-Amax %” value amounted to 54% and the EC50 amounted to 297 nM.
Consider `Cc1ccc(C2CCCCC2)c(OC2(C(=O)NS(=O)(=O)c3cccc(N4CCNC(=O)CC4)n3)CC2)c1` [Example 2-40, 1-(2-Cyclohexyl-5-methylphenoxy)-N-((6-(5-oxo-1,4-diazepan-1-yl)pyridin-2-yl)sulfonyl)cyclopropanecarboxamide], for which, in assay [1], the Emax came to 123% and the EC50 turned out to be 3790 nM. Besides, in assay [2], the “MTECC24 CFHBEC-Amax %” value turned out to be 76% and the EC50 came out at 121 nM.
For `Cc1ccc(C2CCCCC2)c(OC2(C(=O)NS(=O)(=O)c3cccc(N4CCC(N)(CF)CC4)n3)CC2)c1` [Example 2-19, N-((6-(4-Amino-4-(fluoromethyl)piperidin-1-yl)pyridin-2-yl)sulfonyl)-1-(2-cyclohexyl-5-methylphenoxy)cyclopropanecarboxamide], in that order: 326%, 2610 nM, 120% and 61 nM.
For `Cc1ccc(N2CCC(C)(C)CC2)c(OC2(C(=O)NS(=O)(=O)c3cccc(N4CC[C@H](O)C4)n3)CC2)c1` [Example 10-4, (S)-1-(2-(4,4-dimethylpiperidin-1-yl)-5-methylphenoxy)-N-((6-(3-hydroxypyrrolidin-1-yl)pyridin-2-yl)sulfonyl)cyclopropanecarboxamide], in that order: 717%, 2630 nM, 103.3% and 482 nM.
The corresponding values for `Cc1ccc(OC2Cc3ccccc3C2)c(OC2(C(=O)NS(=O)(=O)c3cccc(N4CC[C@H](O)C4)n3)CC2)c1` [Example 6-10, (S)-1-(2-((2,3-dihydro-1H-inden-2-yl)oxy)-5-methylphenoxy)-N-((6-(3-hydroxypyrrolidin-1-yl)pyridin-2-yl)sulfonyl)cyclopropanecarboxamide] are 350%, 2670 nM, 79.2% and 1440 nM.
With `Cc1ccc(OC2CCC3CCCCC3C2)c(OC2(C(=O)NS(=O)(=O)c3cccc(N4CC[C@H](O)C4)n3)CC2)c1` (stereo partly drawn) [Example 6-9, 1-(2-((decahydronaphthalen-2-yl)oxy)-5-methylphenoxy)-N-((6-((S)-3-hydroxypyrrolidin-1-yl)pyridin-2-yl)sulfonyl)cyclopropanecarboxamide], in assay [1], the Emax came out at 382% and the EC50 worked out at 1280 nM. In addition, in assay [2], the “MTECC24 CFHBEC-Amax %” value amounted to 107.4% and the EC50 is 289 nM.
For `O=C(NS(=O)(=O)c1cccc(N2CC(O)C2)n1)C1(Oc2cc(Cl)ccc2C2CCCCC2)CC1` [Example 2-57, 1-(5-Chloro-2-cyclohexylphenoxy)-N-((6-(3-hydroxyazetidin-1-yl)pyridin-2-yl)sulfonyl)cyclopropane-1-carboxamide], in that order: 328%, 3080 nM, 102% and 12 nM.
The corresponding values for `Cc1ccc(C2CCCCC2)c(OC2(C(=O)NS(=O)(=O)c3cccc(N4CCC5(CCCC5N)CC4)n3)CC2)c1` (stereo not drawn) [Example 2-20, N-((6-(1-Amino-8-azaspiro[4.5]decan-8-yl)pyridin-2-yl)sulfonyl)-1-(2-cyclohexyl-5-methylphenoxy)cyclopropanecarboxamide] are 354%, 2540 nM, 122% and 198 nM.
As for `Cc1ccc(C2CCCC2)c(OC2(C(=O)NS(=O)(=O)c3cccc(NC[C@@H](C)O)n3)CC2)c1` [Example 4-6, (R)-1-(2-Cyclopentyl-5-methylphenoxy)-N-((6-((2-hydroxypropyl)amino)pyridin-2-yl)sulfonyl)cyclopropane-1-carboxamide], in assay [1], the Emax came to 537% and it took 3350 nM to reach a half-maximal effect (EC50). Further, in assay [2], the “MTECC24 CFHBEC-Amax %” value came out at 78% and the EC50 is 12 nM.
For `CO[C@H]1CCN(c2cccc(S(=O)(=O)NC(=O)C3(Oc4cc(Cl)ccc4C4CC5(CCC5)C4)CC3)n2)C1` [Example 7-14, (S)-1-(5-Chloro-2-(spiro[3.3]heptan-2-yl)phenoxy)-N-((6-(3-methoxypyrrolidin-1-yl)pyridin-2-yl)sulfonyl)cyclopropane-1-carboxamide], in that order: 496%, 1100 nM, 128.1% and 317 nM.
The corresponding values for `Cc1ccc(OC2CCCCCC2)c(OC2(C(=O)NS(=O)(=O)c3cccc(N4CC[C@H](O)C4)n3)CC2)c1` [Example 6-6, (S)-1-(2-(cycloheptyloxy)-5-methylphenoxy)-N-((6-(3-hydroxypyrrolidin-1-yl)pyridin-2-yl)sulfonyl)cyclopropanecarboxamide] are 462%, 2070 nM, 110.6% and 668 nM.
The corresponding values for `CC1(C)CCN(c2ccc(Cl)cc2OC2(C(=O)NS(=O)(=O)c3cccc(N4CCC(C)(O)CC4)n3)CC2)CC1` [Example 9-42, 1-(5-Chloro-2-(4,4-dimethylpiperidin-1-yl)phenoxy)-N-((6-(4-hydroxy-4-methylpiperidin-1-yl)pyridin-2-yl)sulfonyl)cyclopropane-1-carboxamide] are 588%, 1350 nM, 93.9% and 138 nM.
Take `C[C@@H]1CN(c2cccc(S(=O)(=O)NC(=O)C3(Oc4cc(Cl)ccc4C4CCC(C)(C)CC4)CC3)n2)CCO1` [Example 4-13, (R)-1-(5-Chloro-2-(4,4-dimethylcyclohexyl)phenoxy)-N-((6-(2-methylmorpholino)pyridin-2-yl)sulfonyl)cyclopropane-1-carboxamide]: in assay [1], the Emax was 591% and the response was half-maximal at 1410 nM (EC50). In assay [2], the “MTECC24 CFHBEC-Amax %” value was determined as 83% and the EC50 was 50 nM.
For `Cc1ccc(C2CCCCC2)c(OC2(C(=O)NS(=O)(=O)c3cccc(N4CCC5(CC4)CC(=O)c4cc(F)ccc4O5)n3)CC2)c1` [Example 2-28, 1-(2-Cyclohexyl-5-methylphenoxy)-N-((6-(6-fluoro-4-oxospiro[chroman-2,4′-piperidin]-1′-yl)pyridin-2-yl)sulfonyl)cyclopropanecarboxamide], in that order: 429%, 530 nM, 83% and 49 nM.
For `Cc1ccc(OCc2ccccc2)c(OC2(C(=O)NS(=O)(=O)c3cccc(N4CCO[C@@H](C)C4)n3)CC2)c1` [Example 6-1, (S)-1-(2-(Benzyloxy)-5-methylphenoxy)-N-((6-(2-methylmorpholino)pyridin-2-yl)sulfonyl)cyclopropanecarboxamide], in that order: 230%, 3870 nM, 67% and 153 nM.
As for `Cc1ccc(C2CCC3(CCC3)OC2)c(OC2(C(=O)NS(=O)(=O)c3cccc(N4CCC(C)(O)CC4)n3)CC2)c1` (single isomer, unassigned) [Example 11-4-1, N-((6-(4-hydroxy-4-methylpiperidin-1-yl)pyridin-2-yl)sulfonyl)-1-(5-methyl-2-(5-oxaspiro[3.5]nonan-7-yl)phenoxy)cyclopropane-1-carboxamide], in assay [1], the “DelF508-CFTR-HRP Amax %” value is 460.1% and a half-maximal effect (EC50) was put at 2260 nM. Besides, in assay [2], the “MTECC24 CFHBEC-Amax %” value is recorded as 60.8% and the EC50 was found to be 1080 nM.
`[2H]C1([2H])OC([2H])([2H])C([2H])([2H])N(c2cccc(S(=O)(=O)NC(=O)C3(Oc4cc(C)ccc4C4CCCCC4)CC3)n2)C1([2H])[2H]` [Example 2-39, 1-(2-Cyclohexyl-5-methylphenoxy)-N-((6-(morpholino-d8)pyridin-2-yl)sulfonyl)cyclopropane-1-carboxamide]: in assay [1], the Emax came to 383% and the half-maximal effective concentration (EC50) was determined as 1800 nM. In assay [2], the “MTECC24 CFHBEC-Amax %” value came to 67% and the concentration for a half-maximal effect (EC50) was 2 nM.
Take `CN(C)c1cccc(S(=O)(=O)NC(=O)C2(Oc3cc(Cl)ccc3C3CC4(CCC4)C3)CC2)n1` [Example 7-15, 1-(5-Chloro-2-(spiro[3.3]heptan-2-yl)phenoxy)-N-((6-(dimethylamino)pyridin-2-yl)sulfonyl)cyclopropane-1-carboxamide]: in assay [1], the Emax is 442% and a half-maximal response (EC50) required 860 nM. In assay [2], the “MTECC24 CFHBEC-Amax %” value came out at 120.7% and the EC50 was 166 nM.
